Data taken from article PMC8450341 (Frontiers in Physiology, 2021).
Entries after “also recorded” stand apart in the source; their conditions may differ. Like-named read-outs stand apart in the source and are kept apart here. Blank lines part the entries; values can stand above or below the compound they belong to.

Legend:
[1] = cited from earlier work; for metabolite AUC relative to that of vorinostat: in humans
[2] = Serum pharmacokinetics after single oral dose in normoxic calves; conditions: for ratio of metabolite AUC to vorinostat AUC: calves
Protocol: (§8) Pharmacokinetic parameters were calculated by a non-compartmental model using Phoenix WinNonlin v8.1 ([Wagner, 1993]).

[3] = tested on: rat models of hypoxia-induced pulmonary hypertension; conditions: cited from earlier work
bovine PH-fibs = tested on: bovine PH-fibs; parameters: method as in Li et al., 2011; conditions: ref Li et al., 2011; cited from earlier work
[4] = tested on: calves with hypoxia-induced pulmonary hypertension; assay: Echocardiography in neonatal calf model of hypoxia-induced PH; assay type: in vivo, bovine calf
Excerpt: (§1) The bovine calf hypoxia model of PH previously reported ([Stenmark et al., 1987]; [Lemler et al., 2000]; [Bartels et al., 2016]) consistently produces significant pulmonary hypertension (mean PAP > 100 mmHg) and subsequent tissue changes on post-mortem examination ([Stenmark et al., 1987]). Animals display blood gas PaO2 and PaCO2 values consistent to severe hypoxia and PH ([Stenmark et al., 1987]; [Lemler et al., 2000]). Male Holstein dairy calves at 7 days of age (45–50 kg) were sourced from a local dairy farm. This study utilized a case comparison design. […] Hypoxic calves (Groups 1 and 2) were exposed to hypobaric hypoxia at simulated elevation of 10,000 feet for 48–72 h to allow acclimation then exposed to hypobaric hypoxia at the study condition of 15,000 feet simulated elevation (PB = 430 mmHg, Hypo-Hyperbaric Chamber Facility, Colorado State University Department of Physiology). The standard exposure interval was 14 days at this elevation. Control normoxic calves remained at ambient Fort Collins pressure (4,950 feet PB = 630 mmHg).
(§2) This dosing regimen was selected to minimize adverse effects based on guidelines for human pediatric patients (Lia Gore MD, Center for Cancer and Blood Disorders, Children’s Hospital Colorado, personal communication.) Group 2 calves received no drug treatment. At this age, the calf digestive system has not matured and the abomasum functions as the sole stomach similar to humans.
(§3) Echocardiography was utilized for non-invasive sequential assessment of cardiopulmonary function as described previously ([Lemler et al., 2000]; [Bartels et al., 2016]). […] The progression of pulmonary hypertension was evaluated by sequential echocardiography at the study condition (15,000 feet or normoxia) on study days 4, 8 and terminal day 14. Parasternal long and short axis recordings were obtained over 3–4 cardiac cycles, together with M-mode traces as indicated, using GE Echo PACS (General Electric, Chicago, IL, United States) or MicroDicom^1 software. Echocardiographic findings consistent with PH (abnormal RV size and function), or interventricular septum abnormalities including abnormal motion or flattening were evaluated ([Boon, 2011]). Septal motion and flattening were further quantitated by eccentricity index EI on short-axis views with EchoPACS. Tricuspid or mitral valve regurgitation was scored qualitatively as trace, mild, moderate or severe. Global RV function was assessed qualitatively. When RV images on long-axis included the entire chamber, RV fractional area change (FAC) was calculated with EchoPACS. RV fractional shortening was measured from M-mode recordings using MicroDicom. Calves were monitored following each non-terminal echo procedure for recovery including standing and interacting normally, and normal milk intake.

normoxic control calves [5] = assay: Echocardiography in normoxic vorinostat-treated control calves; assay type: in vivo, bovine calf
Excerpt: as §1, §2, §3

[6] = tested on: calves with hypoxia-induced pulmonary hypertension; assay: Hemodynamics by right heart catheterization, hypoxic calf; assay type: in vivo, bovine calf
Excerpt: as §1, §2
(§4) Standard measurements of PAP and cardiac output were performed by right heart catheterization concurrent with the final echo in both the two normoxic and two hypoxic calves on study day 14 as described previously ([Stenmark et al., 1987]; [Lemler et al., 2000]).
(§5) Data were obtained from right heart catheterization as described in Materials and Methods. Standard units: Pressure, mm Hg; Cardiac output, L/min; PA, pulmonary artery.

normoxic control calves [7] = assay: Hemodynamics by right heart catheterization, normoxic calves; assay type: in vivo, bovine calf
Excerpt: as §1, §2, §4, §5

[8] = tested on: calves in normoxic or hypoxic conditions; assay: Clinical signs and blood chemistry during and after dosing; assay type: in vivo, bovine calf
Excerpt: as §2

HDAC1 = assay: Immunoblotting of HDAC abundance in RV and lung homogenates; assay type: in vivo, bovine calf; conditions: vorinostat over initial 5 days of hypoxia, measured at end of 14 days hypoxic exposure, vs untreated PH
Protocol: At the conclusion of the study period, calves were deeply anesthetized and euthanized. Tissue samples from right ventricle free wall and distal lung parenchyma were snap frozen in liquid nitrogen for laboratory analysis. RNA isolation and quantitative PCR were performed as described previously ([Frid et al., 2009]). mRNA abundance was quantitated relative to HPRT by the delta Ct method. The following primers were used (5′–3′). […] TCCA; Osteopontin (SPPA), Fwd:[…]; Hypoxanthine ribosyl transferase (HPRT), Fwd:[…], Rev:[…].
Procedures for immunoblotting and densitometry were performed as described previously ([Li et al., 2011]). HDAC antibodies were obtained from Cell Signaling Technology (HDAC1, #5356; HDAC5, #20458).
(A) Immunoblotting HDAC abundance.

[9] = tested on: brain natriuretic peptide (BNP) and skeletal muscle alpha-actin mRNAs; assay: Real-time PCR of genes in RV hypertrophic remodeling; assay type: in vivo, bovine calf
Protocol: (§6) At the conclusion of the study period, calves were deeply anesthetized and euthanized. Tissue samples from right ventricle free wall and distal lung parenchyma were snap frozen in liquid nitrogen for laboratory analysis. RNA isolation and quantitative PCR were performed as described previously ([Frid et al., 2009]). mRNA abundance was quantitated relative to HPRT by the delta Ct method. The following primers were used (5′–3′). Fibronectin, Extracellular Domain A (ED-A Fn), Fwd:[…], Rev:[…]; Tenascin C (TnC), Fwd:G […], Rev:[…] TCCA; Osteopontin (SPPA), Fwd:[…] […]
(§7) (A) Immunoblotting HDAC abundance. RV and lung homogenates were prepared and HDAC abundance was determined by immunoblotting as described in section “Materials and Methods.” Additional untreated control and hypoxic animals were analyzed in parallel for comparison. Protein abundance was quantitated densitometrically relative to beta-actin. *p < 0.05 vs. control (unpaired two-tailed t-test). […] Abundances of indicated mRNAs were quantitated by real-time PCR as described in section “Materials and Methods.” Animals used in the present study were analyzed together with samples from additional untreated hypoxic and normoxic calves (n = 4 each) that were managed according to the same animal protocols described in section “Materials and Methods,” and studied around the same period of time. […]

[10] = tested on: ED-A Fn, tenascin C, osteopontin and periostin mRNAs; assay: Real-time PCR of genes in pulmonary remodeling; assay type: in vivo, bovine calf
Protocol: as §6, §7

[11] = tested on: IL-6, CSF2, SDF1, IL1β, IL-1RA, TLR2, POSN mRNAs; assay: Pairwise qPCR of inflammatory and matrikine gene expression; assay type: in vivo, bovine calf; conditions: hypoxic vorinostat-treated vs. untreated calf
Protocol: At the conclusion of the study period, calves were deeply anesthetized and euthanized. Tissue samples from right ventricle free wall and distal lung parenchyma were snap frozen in liquid nitrogen for laboratory analysis. RNA isolation and quantitative PCR were performed as described previously ([Frid et al., 2009]). mRNA abundance was quantitated relative to HPRT by the delta Ct method. The following primers were used (5′–3′). Fibronectin, Extracellular Domain A (ED-A Fn), Fwd:[…], Rev:[…]; Tenascin C (TnC), Fwd:G […], Rev:[…] TCCA; Osteopontin (SPPA), Fwd:[…] CACAGA, Rev:[…]; Periostin (POSTN), Fwd:[…], Rev:CAC […]; Skeletal muscle alpha-actin (ACTA1), Fwd:[…], Rev:GAAGGT […]; Brain natriuretic peptide (NPPB), Fwd:[…], Rev:[…]; Hypoxanthine ribosyl transferase (HPRT), Fwd:[…], Rev:[…].
Figure 2. Comparison of inflammatory and matrikine gene expression in vorinostat treated versus untreated hypoxic calves. mRNA abundance was quantitated as described in Methods. For each indicated mRNA, abundance in the vorinostat-treated PH calf was determined relative to that in the untreated PH calf (indicated by dotted line at unity).

[12] = parameters: method as in Fraczek et al., 2013; conditions: dogs, oral; ref Fraczek et al., 2013; cited from earlier work
[13] = parameters: method as in Fraczek et al., 2013; conditions: rats, oral; ref Fraczek et al., 2013; cited from earlier work
[14] = cited from earlier work
in vivo = conditions: male, Holstein, bovine, serum, po, 235 mg
Protocol: as §8

[15] = ref Cho et al., 2010, Cavasin et al., 2012
[16] = Hypoxic vorinostat treated calf, study day 14
[17] = vorinostat-treated PH calf, day 14
[18] = Normoxic vorinostat treated #1, study day 14
[19] = Normoxic vorinostat treated #2, study day 14
[20] = human adult dose of 400 mg daily, ref Iwamoto et al., 2013
[21] = single oral dose, four normoxic calves

ratio of metabolite AUC to vorinostat AUC ([2]; single oral dose): ~3 fold
Compound: O=C(CCCCCCC(=O)Nc1ccccc1)NO[C@@H]1O[C@H](C(=O)O)[C@@H](O)[C@H](O)[C@H]1O [Vorinostat glucoronide]
metabolite AUC relative to that of vorinostat ([1]; ref Iwamoto et al., 2013): 3–4 times

Compound: CCCC(CCC)C(=O)O [valproic acid]
RV hypertrophy [3, 15]: attenuated
hypoxia-induced PH in rats ([3]; ref Zhao et al. (2012)): inhibited

Compound: Nc1ccccc1NC(=O)c1ccc(CNC(=O)OCc2cccnc2)cc1 [MS-275]
RV function [3, 15]: preserved
RV hypertrophic and pro-fibrotic remodeling [3, 15]: attenuated

Compound: CCC(=O)CCCCC[C@@H]1NC(=O)[C@H]2CCCCN2C(=O)[C@H]([C@@H](C)CC)NC(=O)[C@H](Cc2cn(OC)c3ccccc23)NC1=O [apicidin]
activated fibroblast phenotype (bovine PH-fibs): reversed

RV Fractional area change (FAC) (normoxic control calves [5]; Normoxic #2 calf, vorinostat administration, Study Day 14): 50.9%
RV fractional shortening (normoxic control calves [5]; control (normoxic vorinostat-treated) calf, day 14, M-mode): 50%
Cardiac Output (normoxic control calves [7]; [18]): 4.4 L/min
Mean PA Pressure (normoxic control calves [7]; [18]): 25.1 mm Hg
PA Pulse Pressure (normoxic control calves [7]; [18]): 17.6 mm Hg
Systolic PA Pressure (normoxic control calves [7]; [18]): 34.0 mm Hg
Cardiac Output (normoxic control calves [7]; [19]): 5.1 L/min
Mean PA Pressure (normoxic control calves [7]; [19]): 19.4 mm Hg
PA Pulse Pressure (normoxic control calves [7]; [19]): 14.5 mm Hg
Systolic PA Pressure (normoxic control calves [7]; [19]): 27.1 mm Hg
effect on hemodynamic parameters in normoxic calves (normoxic control calves [7]; compared to the authors' previous studies): did not affect
standard blood chemistry values ([8]; data not shown): within normal reference intervals
abundance of ED-A Fn, TNC, osteopontin and periostin mRNAs in normoxic animals ([10]; normoxic animals): not affected
Tmax (in vivo): ≤ 4 h
time until serum vorinostat returns to undetectable levels ([2]; after single oral administration): ≤ 24 h
integrated area under the concentration × time curve [2, 21]: ~1,500 nM•h
peak serum concentration [2, 21]: ~400 nM
time to peak serum concentration [2, 21]: ~4 h
Compound: O=C(CCCCCCC(=O)Nc1ccccc1)NO [vorinostat, suberanilohydroxamic acid]
RV Fractional area change (FAC) ([4]; Hypoxic #1 calf, vorinostat first 5 days, Study Day 14): 30.1%
septal distortion compared to untreated PH calf ([4]; vorinostat-treated PH calf, apical 4-chamber echo images): reduced septal distortion
RV fractional shortening ([4]; vorinostat-treated PH calf, day 14, M-mode): 20%
degree of RV dysfunction compared to untreated hypoxic calf ([4]; vorinostat-treated hypoxic calf, days 4, 8, and 14): consistently less severe
adverse cardiac effects (normoxic control calves [5]; based on echo and hemodynamic criteria): no evidence for adverse cardiac effects
echocardiographic evidence of negative impacts on cardiac function (normoxic control calves [5]; control normoxic calves, vorinostat treatment): not associated with echocardiographic evidence of negative impacts on cardiac function
Cardiac Output [6, 16]: 5.5 L/min
Mean PA Pressure [6, 16]: 97.6 mm Hg
PA Pulse Pressure [6, 16]: 38.9 mm Hg
Systolic PA Pressure [6, 16]: 118.5 mm Hg
PA pulse pressure compared to untreated hypoxic calf [6, 17]: tended toward reduced; also recorded: substantially reduced
PA systolic pressure compared to untreated hypoxic calf [6, 17]: tended toward reduced; also recorded: slightly reduced
cardiac output compared to untreated hypoxic calf [6, 17]: increased; also recorded: increasing
mean PA pressure compared to untreated hypoxic calf [6, 17]: similar; also recorded: did not lower
adverse clinical signs attributable to vorinostat administration ([8]; during or following active dosing, normoxic or hypoxic conditions): No adverse clinical signs
expression of HDAC1 in both lung and RV (HDAC1): tended to decrease
RV expression of BNP and skeletal muscle alpha-actin mRNAs ([9]; hypoxic calf, compared to calves with untreated PH): tended to decrease
RV mRNA abundance (BNP, skeletal muscle alpha-actin) of control calves ([9]; normoxic control calves): not affected
lung expression of ED-A Fn, TNC, osteopontin and periostin mRNAs ([10]; hypertensive calves compared to untreated hypertensive calves): tended to reduce
expression of pro-inflammatory mRNAs including IL-6, CSF2, SDF1, IL1β, IL-1RA, TLR2, and the matrikine POSN [11]: reduced expression
AUC [1, 20]: 4,000–6,000 nM•h
Cmax [1, 20]: 1000 to 1500 nM
half-life ([1]; humans and other animal species, ref Mohamed et al., 2012, Fraczek et al., 2013, Iwamoto et al.): approximately 2 h
Bioavailability of oral vorinostat ([1]; humans, ref Fraczek et al., 2013): 43%
Tmax ([1]; post-fed humans, ref Iwamoto et al., 2013): ~4 h
bioavailability [12]: 11%
bioavailability [13]: 2%
aqueous solubility [14]: poor
activated fibroblast phenotype (bovine PH-fibs): reversed

Tmax (in vivo): 6 h
ratio of metabolite AUC to vorinostat AUC ([2]; single oral dose): ~20 fold
Compound: O=C(O)CCC(=O)Nc1ccccc1 [Succininanilic Acid, succinanilic acid]
metabolite AUC relative to that of vorinostat ([1]; ref Iwamoto et al., 2013): 10–13 times

Compound: Nc1ccccc1NC(=O)c1ccc(CNc2nccc(-c3cccnc3)n2)cc1 [MCD-0103]
RV function [3, 15]: preserved
RV hypertrophic and pro-fibrotic remodeling [3, 15]: attenuated
